Laboratory results taken from patent publication US6368788B1 (priority 1987, dated 2002).
Marks after values point to notes of the source that are not given here.

What was measured:
[1] = test system: peripheral blood lymphocytes; experiment: Chernobyl Protocol F: L-Glu-L-Trp at 3 years post-radiation exposure; assay type: in vivo, human
Method: An increased incidence of cancer is one sequelae known to occur in subjects exposed to radiation, presumably because of decreased immune surveillance and elimination of tumor cells. […] An attempt to normalize immune parameters was attempted in 70 of the latter patients exposed 3 years previously to 0.2-0.5 Gy of radiation at Chernobyl. […] The subjects were treated with L-Glu-L-Trp in an attempt to alleviate the immune defects. The treatment course consisted of daily doses of 100 μg L-Glu-L-Trp administered im for 3-5 days. Sixty three subjects, similarly exposed to radiation in Chernobyl were used as untreated controls.

[2] = test system: acute respiratory infections; experiment: Prophylaxis of respiratory infection in athletes in training, intranasal L-Glu-L-Trp; assay type: in vivo, human; conditions: for B-Lymphocytes / B-Lymphocytes % Normal Value / B-Lymphocytes (%) / Blasts w/Con-A / Blasts w/PHA / C3 / Eosinophils / Eosinophils (%) / Eosinophils, % Normal Value / Granulocyte Cationic Proteins / IgA / IgA % Normal Value / IgG / IgG % Normal Value / IgM / IgM % Normal Value / Leukocytes / Leukocytes % Normal Value / Leukocytes, Ratio Post-Treat/Pre-Treat Value / Lymphocytes / Lymphocytes % Normal Value / Lymphocytes, % / Monocytes / Monocytes, % / Monocytes, % Normal Value / Neutrophils / Neutrophils, % / Neutrophils, % Normal Value / Phagocytosis (yeast) / Salivary IgM / Salivary Lysozyme / Salivary Secretory IgA / Serum Lysozyme / Serum β-Lysin / T-Lymphocytes / T-Lymphocytes % Normal Value / T-Lymphocytes (%) / T-helper (CD4+) / T-helper (CD4+), % / T-helper (CD4+), % Normal Value / T-suppressor (CD8+) / T-suppressor (CD8+), % / T-suppressor (CD8+), % Normal Value / Total Salivary IgA: After L-Glu-L-Trp
[3] = Allogeneic skin grafts; design: species or system human; conditions: in vivo
Method: L-Glu-L-Trp was administered to 17 patients receiving allogeneic skin grafts. 27 patients receiving similar grafts and conventional care served as the control group. L-Glu-L-Trp was administered im as a single daily injection of 50-100 μg on each of 5 consecutive days, or alternatively, intranasally at a dose of 1 μg/kg daily for 5 days. Graft rejection was manifest in 8 of the control patients.

[4] = Post-term women (Protocol D); design: species or system human; conditions: in vivo
Method: Nineteen patients (19 women) post-term were treated with L-Glu-L-Trp and 48 women received conventional post-term treatment as a control group.

[5] = Pleuritis / suppurative lung diseases, combined antibiotic therapy (Protocol K); assay type: in vivo, human
Method: Efficacy of L-Glu-L-Trp in combined antibiotic therapy was evaluated in twelve male patients (aged 18 to 45) with suppurative lung diseases that were poorly responsive to antibiotic therapy and accompanied by diffuse pleuritis, disseminated intravascular coagulation (DIC), pleural effusions, and fever. […] L-Glu-L-Trp was administered to these patients as a treatment of nearly last resort, and as part of the ongoing (unsuccessful) regimen of broad spectrum antibiotic therapy: i.e., 200 μg of L-Glu-L-Trp was administered im daily over a period of 5-7 days. […] In addition, T-cell counts in peripheral blood increased and IgG, IgM, and IgA increased (TABLE 17) and C-reactive protein levels fell (TABLE 16).

For L-Glu-L-Trp, the “B-Ig+, %” value ([1]; After L-Glu-L-Trp) was 11.0 ± 0.3%, the “B-Ig+, abs” value ([1]; After L-Glu-L-Trp) was 0.23 ± 0.04 10^9/L and the “B-IgA+, %” value ([1]; After L-Glu-L-Trp) was 1.9 ± 0.3%. The “B-IgA+, abs” value ([1]; After L-Glu-L-Trp) was 0.04 ± 0.002 10^9/L, the “B-IgG+, %” value ([1]; After L-Glu-L-Trp) was 4.8 ± 0.5% and the “B-IgG+, abs” value ([1]; After L-Glu-L-Trp) was 0.09 ± 0.007 10^9/L. For the same substance, the “B-IgM+, %” value ([1]; After L-Glu-L-Trp) was 4.1 ± 0.6 %, the “B-IgM+, abs” value ([1]; After L-Glu-L-Trp) was 0.12 ± 0.003** 10^9/L and the “CD2-DR+, %” value ([1]; After L-Glu-L-Trp) was 32 ± 3 %. For the same substance, the “CD2-DR+, abs” value ([1]; After L-Glu-L-Trp) was 0.66 ± 0.10** 10^9/L, the “CD3, %” value ([1]; After L-Glu-L-Trp) was 59.2 ± 2.1 % and the “CD3, abs” value ([1]; After L-Glu-L-Trp) was 1.21 ± 0.15 10^9/L. For the same substance, the “CD4, %” value ([1]; After L-Glu-L-Trp) was 36.2 ± 1.7%, the “CD4, abs” value ([1]; After L-Glu-L-Trp) was 0.74 ± 0.08 10^9/L and the “CD8, %” value ([1]; After L-Glu-L-Trp) was 23.2 ± 2.1 %. For the same substance, the “CD8, abs” value ([1]; After L-Glu-L-Trp) was 0.48 ± 0.07** 10^9/L, the IgA ([1]; After L-Glu-L-Trp) was 1.2 ± 0.4 g/L and the IgG ([1]; After L-Glu-L-Trp) was 10.9 ± 1.3 g/L. The IgM ([1]; After L-Glu-L-Trp) was 1.06 ± 0.06 g/L, the “LMI, %” value ([1]; After L-Glu-L-Trp) was 75 ± 6 % and the “Leukocytes, abs” value ([1]; After L-Glu-L-Trp) was 5.6 ± 0.4 10^9/L. For the same substance, the “Lymphocytes, abs” value ([1]; After L-Glu-L-Trp) was 2.1 ± 0.3 10^9/L, the T4/T8 ([1]; After L-Glu-L-Trp) was 1.58 ± 0.04 and the “Cases with restoration of CD2+ counts” value ([1]; in vivo) was 85%. The Clinical outcome ([1]; in vivo) was “disappearance of symptoms associated with the asthenic syndrome”, the B-Lymphocytes ([2]; Athletes) was 0.29 ± 0.02 ×10^9/L and the “B-Lymphocytes % Normal Value” ([2]; Athletes) was “(74%)”. The “B-Lymphocytes (%)” value ([2]; Athletes) was 13.6 ± 0.9 %, the “Blasts w/Con-A” value ([2]; Athletes) was 53.4 ± 3.9% and the “Blasts w/PHA” value ([2]; Athletes) was 42.5 ± 2.5 %. For the same substance, the C3 ([2]; Athletes) was 0.8 ± 0.02 g/L, the Eosinophils ([2]; Athletes) was 0.23 ± 0.03 ×10^9/L and the “Eosinophils (%)” value ([2]; Athletes) was 4.2 ± 0.6%. For the same substance, the “Eosinophils, % Normal Value” ([2]; Athletes) was “(96%)”, the “Granulocyte Cationic Proteins” value ([2]; Athletes) was 1.1 ± 0.04 and the IgA ([2]; Athletes) was 1.8 ± 0.1 mg/mL. For the same substance, the “IgA % Normal Value” ([2]; Athletes) was “(138%)”, the IgG ([2]; Athletes) was 10.2 ± 0.6 mg/mL and the “IgG % Normal Value” ([2]; Athletes) was “(84%)”. The IgM ([2]; Athletes) was 1.1 ± 0.07 mg/mL, the “IgM % Normal Value” ([2]; Athletes) was “(100%)” and the Leukocytes ([2]; Athletes) was 6.1 ± 0.2 ×10^9/L. For the same substance, the “Leukocytes % Normal Value” ([2]; Athletes) was “(109%)”, the “Leukocytes, Ratio Post-Treat/Pre-Treat Value” ([2]; Athletes) was “(1.09)” and the Lymphocytes ([2]; Athletes) was 2.22 ± 0.1 ×10^9/L. The “Lymphocytes % Normal Value” ([2]; Athletes) was “(104%)”, the “Lymphocytes, %” value ([2]; Athletes) was 34.9 ± 4.7% and the Monocytes ([2]; Athletes) was 0.59 ± 0.05 ×10^9/L. For the same substance, the “Monocytes, %” value ([2]; Athletes) was 9.4 ± 0.5%, the “Monocytes, % Normal Value” ([2]; Athletes) was “(137%)” and the Neutrophils ([2]; Athletes) was 3.01 ± 0.2 ×10^9/L. The “Neutrophils, %” value ([2]; Athletes) was 49.0 ± 1.5%, the “Neutrophils, % Normal Value” ([2]; Athletes) was “(115%)” and the “Phagocytosis (yeast)” value ([2]; Athletes) was 73.3 ± 1.5. For the same substance, the “Salivary IgM” value ([2]; Athletes) was 0.65 g/L, the “Salivary Lysozyme” value ([2]; Athletes) was 68.7 ± 1.3 % and the “Salivary Secretory IgA” value ([2]; Athletes) was 0.056 ± 0.004 g/L. For the same substance, the “Serum Lysozyme” value ([2]; Athletes) was 60.2 ± 1.6%, the “Serum β-Lysin” value ([2]; Athletes) was 57.6 ± 3.2 % and the T-Lymphocytes ([2]; Athletes) was 1.55 ± 0.08 ×10^9/L. The “T-Lymphocytes % Normal Value” ([2]; Athletes) was “(108%)”, the “T-Lymphocytes (%)” value ([2]; Athletes) was 70.8 ± 1.4 % and the “T-helper (CD4+)” value ([2]; Athletes) was 1.25 ± 0.07 ×10^9/L. For the same substance, the “T-helper (CD4+), %” value ([2]; Athletes) was 56.1 ± 1.3 %, the “T-helper (CD4+), % Normal Value” ([2]; Athletes) was “(112%)” and the “T-suppressor (CD8+)” value ([2]; Athletes) was 0.12 ± 0.02 ×10^9/L. The “T-suppressor (CD8+), %” value ([2]; Athletes) was 5.9 ± 0.7%, the “T-suppressor (CD8+), % Normal Value” ([2]; Athletes) was “(86%)” and the “Total Salivary IgA” value ([2]; Athletes) was 0.55 ± 0.05 g/L. For the same substance, the B-Lymphocytes ([2]; Controls) was 0.41 ± 0.05 ×10^9/L, the “B-Lymphocytes % Normal Value” ([2]; Controls) was “(85%)” and the “B-Lymphocytes (%)” value ([2]; Controls) was 20.1 ± 1.5%. For the same substance, the “Blasts w/Con-A” value ([2]; Controls) was 66.8 ± 4.0 %, the “Blasts w/PHA” value ([2]; Controls) was 34.1 ± 3.1% and the C3 ([2]; Controls) was 0.7 ± 0.03 g/L. The Eosinophils ([2]; Controls) was 0.22 ± 0.07 ×10^9/L, the “Eosinophils (%)” value ([2]; Controls) was 4.0 ± 0.8% and the “Eosinophils, % Normal Value” ([2]; Controls) was “(85%)”. For the same substance, the “Granulocyte Cationic Proteins” value ([2]; Controls) was 1.22 ± 0.1, the IgA ([2]; Controls) was 1.8 ± 0.2 mg/mL and the “IgA % Normal Value” ([2]; Controls) was “(100%)”. The IgG ([2]; Controls) was 12.6 ± 0.7 mg/mL, the “IgG % Normal Value” ([2]; Controls) was “(104%)” and the IgM ([2]; Controls) was 1.0 ± 0.02 mg/mL. The “IgM % Normal Value” ([2]; Controls) was “(77%)”, the Leukocytes ([2]; Controls) was 5.6 ± 0.4 ×10^9/L and the “Leukocytes % Normal Value” ([2]; Controls) was “(97%)”. For the same substance, the “Leukocytes, Ratio Post-Treat/Pre-Treat Value” ([2]; Controls) was “(0.85)”, the Lymphocytes ([2]; Controls) was 2.08 ± 0.2 ×10^9/L and the “Lymphocytes % Normal Value” ([2]; Controls) was “(99%)”. For the same substance, the “Lymphocytes, %” value ([2]; Controls) was 37.8 ± 2.9%, the Monocytes ([2]; Controls) was 0.58 ± 0.07 ×10^9/L and the “Monocytes, %” value ([2]; Controls) was 10.6 ± 1.2%. The “Monocytes, % Normal Value” ([2]; Controls) was “(88%)”, the Neutrophils ([2]; Controls) was 2.67 ± 0.3 ×10^9/L and the “Neutrophils, %” value ([2]; Controls) was 47.5 ± 2.9%. The “Neutrophils, % Normal Value” ([2]; Controls) was “(75%)”, the “Phagocytosis (yeast)” value ([2]; Controls) was 75.0 ± 1.7 and the “Salivary IgM” value ([2]; Controls) was 0.73 g/L. The “Salivary Lysozyme” value ([2]; Controls) was 63.5 ± 3.0%, the “Salivary Secretory IgA” value ([2]; Controls) was 0.066 ± 0.009 g/L and the “Serum Lysozyme” value ([2]; Controls) was 50.6 ± 1.4 %. The “Serum β-Lysin” value ([2]; Controls) was 46.8 ± 5.4%, the T-Lymphocytes ([2]; Controls) was 1.56 ± 0.1 ×10^9/L and the “T-Lymphocytes % Normal Value” ([2]; Controls) was “(108%)”. For the same substance, the “T-Lymphocytes (%)” value ([2]; Controls) was 73.9 ± 1.7%, the “T-helper (CD4+)” value ([2]; Controls) was 1.36 ± 0.2 ×10^9/L and the “T-helper (CD4+), %” value ([2]; Controls) was 65.6 ± 2.0 %. The “T-helper (CD4+), % Normal Value” ([2]; Controls) was “(136%)”, the “T-suppressor (CD8+)” value ([2]; Controls) was 0.08 ± 0.05 ×10^9/L and the “T-suppressor (CD8+), %” value ([2]; Controls) was 4.8 ± 1.0%. For the same substance, the “T-suppressor (CD8+), % Normal Value” ([2]; Controls) was “(100%)”, the “Total Salivary IgA” value ([2]; Controls) was 0.48 ± 0.1 g/L and the Incidence of infection ([2]; athletes treated, two month period) was 24.7%. For the same substance, the “Reduction of the rate of upper respiratory infections and illness” value ([2]; vs controls) was 4 fold, the Clinical outcome [3] was “prevented infectious complications and delayed graft rejection” and the Clinical outcome [4] was “resulting in a normal delivery”. For the same substance, the Clinical outcome ([5]; 200 μg im daily 5-7 days) was “A dramatic change in the clinical picture was observed in all 12 patients”, the ATIII ([5]; After L-Glu-L-Trp Therapy) was 98.3 ± 15.3 % of normal and the “Clotting time (citrated whole blood-recalcified)” value ([5]; After L-Glu-L-Trp Therapy) was 146.5 ± 28.2. The FDP ([5]; After L-Glu-L-Trp Therapy) was 21.7 ± 0.8 µg/mL, the “Fibrinogen Concentration” value ([5]; After L-Glu-L-Trp Therapy) was 4.7 ± 1.2 g/L and the “Fibrinolytic Activity” value ([5]; After L-Glu-L-Trp Therapy) was 181.2 ± 52.2 min. For the same substance, the Kaolin-Cephalin clotting time ([5]; After L-Glu-L-Trp Therapy) was 61.7 ± 6.1.
